For twelve compounds, AC50, EC50 and IC50 results are on record in ChEMBL document CHEMBL1201862, “PubChem BioAssay data set” (2004).

One data set deals with Cytochrome P450 3A4 (Homo sapiens, UniProt P08684).
The target in the next data set is T1, Streptokinase A (Streptococcus pyogenes serotype M1, UniProt P10520).
T1 sequence (P10520 whole entry): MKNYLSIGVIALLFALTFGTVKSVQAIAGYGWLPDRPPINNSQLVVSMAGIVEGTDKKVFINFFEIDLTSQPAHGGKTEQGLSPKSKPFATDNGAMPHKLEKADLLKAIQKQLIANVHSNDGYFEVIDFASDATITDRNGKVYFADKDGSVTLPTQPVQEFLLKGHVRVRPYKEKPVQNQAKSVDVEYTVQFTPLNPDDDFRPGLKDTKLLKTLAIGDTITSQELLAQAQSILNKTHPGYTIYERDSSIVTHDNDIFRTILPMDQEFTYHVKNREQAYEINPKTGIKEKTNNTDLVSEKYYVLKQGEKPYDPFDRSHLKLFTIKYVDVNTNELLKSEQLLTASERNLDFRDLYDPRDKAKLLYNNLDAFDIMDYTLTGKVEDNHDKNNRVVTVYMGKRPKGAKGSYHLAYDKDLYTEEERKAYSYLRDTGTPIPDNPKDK
As to the kind of experiment: S. pyogenes streptokinase expression inhibitors, potency, dose response, plasminogen activation absorbance, OD405 (AID 1914).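 Note: secreted streptokinase activity via plasminogen activation per viability signal from cell pellet.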 It is filed as functional, Streptococcus pyogenes M1 GAS.

Data set [1] deals with DNA dC->dU-editing enzyme APOBEC-3A (Homo sapiens, UniProt P31941). As to the kind of experiment: Dose Response confirmation of small molecule APOBEC3A DNA Deaminase Inhibitors via a fluorescence-based single-stranded DNA deaminase assay. [Related pubchem assays (depositor defined):AID493011, AID493024]. It is filed as functional.
Data set [2] concerns the target DNA dC->dU-editing enzyme APOBEC-3G (Homo sapiens, UniProt Q9HC16). The format is functional.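 Note: Dose-response counterscreen measuring inhibition of APOBEC3G DNA deaminase activity, run while confirming APOBEC3A inhibitors.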
For data set [3], the system named is Streptococcus sp. 'group A'. As to the kind of experiment: growth inhibition of control SK(-) GAS strain, dose response, counter-screen for streptokinase expression inhibitor project, luminescence, kanamycin, BacTiterGlo, confirmation (AID 1900). It is filed as functional, organism-based. A general note: A counterscreen serves to expose hits that act by an unwanted route or on another target.

Another data set concerns Streptococcus. As to the kind of experiment: Group A Streptococcus viability loss, dose response, counter-screen for streptokinase expression inhibitor project, luminescence, BacTiterGlo (AID 1915).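 Note: potency for reduction of bacterial viability or growth.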 It is filed as functional, organism-based.
The next data set deals with HEK293. As to the kind of experiment: inhibitors of LMP1-driven NF-kB reporter, dose response, cell-based, HEK293, luciferase, cherry-pick (AID 588343). The format is functional. Conditions: Homo sapiens.
The next data set concerns the target T2, Cytochrome P450 1A2 (Homo sapiens, UniProt P05177).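 Note: PubChem cytochrome P450 panel assay, CYP1A2 panel member.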
T2 sequence (P05177 whole entry): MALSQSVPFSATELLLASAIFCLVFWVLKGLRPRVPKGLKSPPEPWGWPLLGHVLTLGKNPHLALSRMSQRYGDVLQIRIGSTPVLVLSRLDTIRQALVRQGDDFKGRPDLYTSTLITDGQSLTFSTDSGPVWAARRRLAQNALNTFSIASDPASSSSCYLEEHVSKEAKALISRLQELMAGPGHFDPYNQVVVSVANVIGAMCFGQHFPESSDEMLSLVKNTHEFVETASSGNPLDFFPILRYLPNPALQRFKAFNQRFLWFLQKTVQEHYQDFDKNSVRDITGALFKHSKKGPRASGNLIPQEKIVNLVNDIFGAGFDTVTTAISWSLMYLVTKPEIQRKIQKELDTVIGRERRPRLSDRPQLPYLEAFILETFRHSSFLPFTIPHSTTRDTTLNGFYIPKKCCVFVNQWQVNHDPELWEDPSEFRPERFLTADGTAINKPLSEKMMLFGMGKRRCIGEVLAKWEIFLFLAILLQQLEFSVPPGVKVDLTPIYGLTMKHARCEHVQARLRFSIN

In another data set the target is Cytochrome P450 2C9 (Homo sapiens, UniProt P11712).
For data set [4], the target named is T3, Calpain-2 catalytic subunit (Sus scrofa, UniProt P43367).
T3 sequence (P43367 whole entry): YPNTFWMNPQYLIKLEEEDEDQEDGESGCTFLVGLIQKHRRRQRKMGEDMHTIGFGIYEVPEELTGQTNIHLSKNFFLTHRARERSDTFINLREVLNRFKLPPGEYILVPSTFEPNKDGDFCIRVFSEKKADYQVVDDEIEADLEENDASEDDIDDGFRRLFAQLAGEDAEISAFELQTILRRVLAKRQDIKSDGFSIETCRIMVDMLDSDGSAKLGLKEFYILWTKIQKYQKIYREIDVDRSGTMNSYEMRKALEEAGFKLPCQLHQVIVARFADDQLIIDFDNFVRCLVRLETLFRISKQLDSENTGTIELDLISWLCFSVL
As to the kind of experiment: pig calpain II inhibitor potency, dose response, biochemical, fluorogenic peptide substrate (AID 1420). The format is functional.

The nature of data set [5]: Counterscreen for inhibitors of Trypanosoma brucei methionyl tRNA synthetase (MetRS): Luminescence-based cell-based high throughput dose response assay to identify compounds that are cytotoxic to Jurkat human T lymphocyte cells. The format is functional.
For data set [6], the target named is T4, Methionyl-tRNA synthetase, putative (Trypanosoma brucei brucei, UniProt Q38C91).
T4 sequence (Q38C91 whole entry): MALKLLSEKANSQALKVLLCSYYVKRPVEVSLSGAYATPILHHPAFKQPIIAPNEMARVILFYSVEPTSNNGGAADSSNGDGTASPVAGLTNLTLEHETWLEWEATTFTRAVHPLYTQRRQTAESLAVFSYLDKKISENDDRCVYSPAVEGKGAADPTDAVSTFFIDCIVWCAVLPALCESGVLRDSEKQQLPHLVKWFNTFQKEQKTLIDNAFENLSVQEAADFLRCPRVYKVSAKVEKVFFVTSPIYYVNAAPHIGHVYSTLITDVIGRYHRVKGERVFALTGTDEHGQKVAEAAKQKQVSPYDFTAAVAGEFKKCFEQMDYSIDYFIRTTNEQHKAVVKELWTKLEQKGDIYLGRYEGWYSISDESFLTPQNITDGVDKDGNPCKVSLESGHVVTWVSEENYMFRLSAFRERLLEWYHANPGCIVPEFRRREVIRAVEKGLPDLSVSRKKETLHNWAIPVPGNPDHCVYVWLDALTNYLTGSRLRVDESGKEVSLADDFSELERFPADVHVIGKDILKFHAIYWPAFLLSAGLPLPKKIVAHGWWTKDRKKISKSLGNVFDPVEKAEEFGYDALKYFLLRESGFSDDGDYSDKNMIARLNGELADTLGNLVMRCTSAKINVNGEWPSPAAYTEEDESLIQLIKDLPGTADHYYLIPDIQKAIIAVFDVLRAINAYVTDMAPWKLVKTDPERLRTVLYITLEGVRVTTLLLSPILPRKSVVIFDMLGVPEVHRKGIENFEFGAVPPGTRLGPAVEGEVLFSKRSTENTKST
The format is functional, Trypanosoma brucei brucei strain 927/4 GUTat10.1.

The target in another data set is Cytochrome P450 2C19 (Homo sapiens, UniProt P33261). Nature of the data set: Cytochrome panel assay with activity outcomes. Panel member name: p450-cyp2c19 Compounds with AC50 equal or less than 10 uM are considered active. It is filed as functional. The note with it: read-out: AC50.
Data set [7] in a line: insulin promoter down-regulators in MIN6 cells, imaging, high-content screening, mouse beta cells (AID 1628). The format is functional.
Data set [8] in a line: Shn3 3'UTR reporter inhibitors, dose response, cell-based, Clone20 osteoblasts, firefly luciferase, cherry-picked (AID 624132).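 Note: firefly luciferase luminescence from reporter carrying the Shn3 3'UTR in osteoblasts.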 It is filed as functional.
The nature of data set [9]: HepG2 cell cytotoxicity, dose response, cytotoxicity control for Shn3 inhibitor project, CellTiter-Glo, cherry-picked (AID 624134). The format is functional, cell-based. Background: Cellular ATP, detected with luciferase, serves as a proxy for viable cell number.
The nature of data set [10]: control 3'UTR Renilla luciferase suppression, dose response, counter-screen for Shn3 inhibitor project, cell-based, Clone20-Shn3RL, cherry-picked (AID 624133). The format is functional.
Data set [11] in a line: cytotoxicity in MIN6 insulinoma cells, dose response, cytotoxicity control, cell-based, mouse insulinoma (AID 2122).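 Note: confirmatory high-throughput counterscreen run to flag cytotoxic compounds; mouse MIN-6 beta cells carrying an insulin promoter eGFP reporter.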 It is filed as functional.
Data set [12] concerns the target 5-hydroxytryptamine receptor 2A (Mus musculus, UniProt P35363). The format is functional, cell-based.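 Note: CHO-K1 cells with tagged receptor and beta-arrestin; agonist potency measured as compound-induced activation of the receptor.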
For a further data set, the target named is Mu-type opioid receptor (Homo sapiens, UniProt P35372). The format is functional, cell-based.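 Note: U2OS cells with beta-arrestin recruitment to OPRM1 by beta-gal complementation.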
In data set [13] the target is T5, Corticotropin-releasing factor receptor 2/Corticotropin-releasing factor-binding protein (Homo sapiens, UniProt P24387+Q13324).
T5 sequence (Q13324 whole entry): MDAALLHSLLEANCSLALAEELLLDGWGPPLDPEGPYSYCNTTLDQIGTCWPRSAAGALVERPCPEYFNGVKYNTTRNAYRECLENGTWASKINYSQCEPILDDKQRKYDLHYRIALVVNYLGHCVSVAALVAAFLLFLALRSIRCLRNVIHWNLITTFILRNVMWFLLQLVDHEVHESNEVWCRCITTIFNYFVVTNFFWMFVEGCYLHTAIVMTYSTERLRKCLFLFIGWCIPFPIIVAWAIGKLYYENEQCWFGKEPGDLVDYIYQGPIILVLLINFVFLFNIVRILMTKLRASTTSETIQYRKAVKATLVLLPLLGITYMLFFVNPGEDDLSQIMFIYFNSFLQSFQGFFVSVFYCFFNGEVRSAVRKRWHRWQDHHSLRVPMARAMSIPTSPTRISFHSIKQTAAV
T5 sequence (P24387 whole entry): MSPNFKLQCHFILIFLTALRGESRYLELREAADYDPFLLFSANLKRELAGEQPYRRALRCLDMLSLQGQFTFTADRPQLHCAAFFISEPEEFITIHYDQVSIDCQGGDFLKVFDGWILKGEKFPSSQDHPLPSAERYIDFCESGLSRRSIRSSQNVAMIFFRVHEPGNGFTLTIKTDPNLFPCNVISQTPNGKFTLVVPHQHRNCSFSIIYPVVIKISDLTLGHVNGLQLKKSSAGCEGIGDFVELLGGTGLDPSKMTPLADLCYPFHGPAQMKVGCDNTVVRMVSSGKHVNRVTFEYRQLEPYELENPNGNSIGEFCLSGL
As to the kind of experiment: activators of CRF receptor 2 with binding protein – uHTS hits, confirmation (AID 602473). It is filed as functional. Conditions: read-out: EC50_Mean.

Calls of active or inactive are those of the source.

A word on the AC50: it is the midpoint of the concentration-response curve, whichever way the signal moves. One may read the IC50 as the concentration that inhibits the measured activity by half.

Cytochrome P450 3A4, sequence (P08684 whole entry): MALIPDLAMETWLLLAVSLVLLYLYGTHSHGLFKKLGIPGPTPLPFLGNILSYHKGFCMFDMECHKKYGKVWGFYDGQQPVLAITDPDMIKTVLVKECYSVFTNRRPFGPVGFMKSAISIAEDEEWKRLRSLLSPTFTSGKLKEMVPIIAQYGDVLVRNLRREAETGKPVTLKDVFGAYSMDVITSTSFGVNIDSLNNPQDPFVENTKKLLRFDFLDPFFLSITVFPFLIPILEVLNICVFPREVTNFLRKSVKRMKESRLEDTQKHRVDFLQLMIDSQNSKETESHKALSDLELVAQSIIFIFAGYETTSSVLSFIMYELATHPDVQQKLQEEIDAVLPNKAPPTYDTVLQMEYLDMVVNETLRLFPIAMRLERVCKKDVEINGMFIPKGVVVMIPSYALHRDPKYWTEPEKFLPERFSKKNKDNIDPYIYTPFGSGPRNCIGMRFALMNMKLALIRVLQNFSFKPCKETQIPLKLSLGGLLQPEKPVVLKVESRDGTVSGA
Cytochrome P450 2C19, sequence (P33261 whole entry): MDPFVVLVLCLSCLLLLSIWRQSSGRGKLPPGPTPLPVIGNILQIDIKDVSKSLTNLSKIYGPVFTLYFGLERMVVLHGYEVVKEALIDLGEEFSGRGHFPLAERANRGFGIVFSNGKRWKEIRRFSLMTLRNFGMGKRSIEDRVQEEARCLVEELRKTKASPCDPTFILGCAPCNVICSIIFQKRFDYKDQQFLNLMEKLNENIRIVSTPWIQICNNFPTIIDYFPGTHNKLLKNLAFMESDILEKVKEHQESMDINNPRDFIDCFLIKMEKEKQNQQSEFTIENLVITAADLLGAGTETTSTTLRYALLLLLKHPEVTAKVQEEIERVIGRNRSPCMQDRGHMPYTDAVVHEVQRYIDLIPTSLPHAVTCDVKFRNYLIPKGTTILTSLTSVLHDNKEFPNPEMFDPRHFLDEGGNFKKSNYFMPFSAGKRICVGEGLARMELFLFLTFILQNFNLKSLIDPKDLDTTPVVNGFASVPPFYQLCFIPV
5-hydroxytryptamine receptor 2A, sequence (P35363 whole entry): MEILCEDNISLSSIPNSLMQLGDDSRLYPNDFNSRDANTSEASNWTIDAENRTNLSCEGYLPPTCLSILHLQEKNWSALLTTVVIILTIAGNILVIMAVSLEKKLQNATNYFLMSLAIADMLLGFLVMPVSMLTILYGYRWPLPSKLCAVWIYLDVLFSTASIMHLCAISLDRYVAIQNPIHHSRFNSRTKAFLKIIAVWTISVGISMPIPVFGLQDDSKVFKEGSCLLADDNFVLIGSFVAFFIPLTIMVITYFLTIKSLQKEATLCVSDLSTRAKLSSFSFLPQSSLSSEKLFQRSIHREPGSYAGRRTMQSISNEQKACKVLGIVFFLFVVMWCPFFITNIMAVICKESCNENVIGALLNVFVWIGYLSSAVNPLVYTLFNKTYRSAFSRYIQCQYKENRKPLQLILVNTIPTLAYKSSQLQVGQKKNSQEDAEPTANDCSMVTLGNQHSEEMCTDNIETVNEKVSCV
Mu-type opioid receptor, sequence (P35372 whole entry): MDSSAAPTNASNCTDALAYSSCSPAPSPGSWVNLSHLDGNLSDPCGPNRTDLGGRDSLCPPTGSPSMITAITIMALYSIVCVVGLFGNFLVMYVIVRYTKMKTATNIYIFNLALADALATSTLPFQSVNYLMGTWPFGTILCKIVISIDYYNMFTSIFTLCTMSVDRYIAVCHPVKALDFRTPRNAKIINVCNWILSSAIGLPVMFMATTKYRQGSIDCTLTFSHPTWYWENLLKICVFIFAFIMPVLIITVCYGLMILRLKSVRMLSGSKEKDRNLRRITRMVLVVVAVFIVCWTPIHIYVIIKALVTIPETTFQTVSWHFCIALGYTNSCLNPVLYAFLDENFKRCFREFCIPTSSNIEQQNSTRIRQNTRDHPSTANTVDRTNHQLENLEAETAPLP
DNA dC->dU-editing enzyme APOBEC-3A, sequence (P31941 whole entry): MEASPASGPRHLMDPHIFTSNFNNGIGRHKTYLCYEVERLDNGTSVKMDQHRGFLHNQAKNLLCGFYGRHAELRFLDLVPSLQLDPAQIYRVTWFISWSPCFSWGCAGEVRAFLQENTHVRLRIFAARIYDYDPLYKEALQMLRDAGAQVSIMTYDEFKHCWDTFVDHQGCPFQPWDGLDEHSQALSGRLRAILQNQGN
Cytochrome P450 2C9, sequence (P11712 whole entry): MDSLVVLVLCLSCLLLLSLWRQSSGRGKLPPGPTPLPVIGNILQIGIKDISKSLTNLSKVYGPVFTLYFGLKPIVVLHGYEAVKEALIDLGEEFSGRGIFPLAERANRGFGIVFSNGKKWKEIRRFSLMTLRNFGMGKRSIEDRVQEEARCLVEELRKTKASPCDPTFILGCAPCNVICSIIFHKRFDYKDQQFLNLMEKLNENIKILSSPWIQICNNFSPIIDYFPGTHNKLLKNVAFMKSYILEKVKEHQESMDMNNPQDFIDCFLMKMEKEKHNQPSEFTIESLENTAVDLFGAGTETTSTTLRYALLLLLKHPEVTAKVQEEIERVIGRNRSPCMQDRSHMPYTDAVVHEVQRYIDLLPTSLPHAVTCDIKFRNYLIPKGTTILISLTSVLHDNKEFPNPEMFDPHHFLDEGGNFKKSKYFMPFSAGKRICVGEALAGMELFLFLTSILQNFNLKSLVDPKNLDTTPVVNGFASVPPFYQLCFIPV
DNA dC->dU-editing enzyme APOBEC-3G, sequence (Q9HC16 whole entry): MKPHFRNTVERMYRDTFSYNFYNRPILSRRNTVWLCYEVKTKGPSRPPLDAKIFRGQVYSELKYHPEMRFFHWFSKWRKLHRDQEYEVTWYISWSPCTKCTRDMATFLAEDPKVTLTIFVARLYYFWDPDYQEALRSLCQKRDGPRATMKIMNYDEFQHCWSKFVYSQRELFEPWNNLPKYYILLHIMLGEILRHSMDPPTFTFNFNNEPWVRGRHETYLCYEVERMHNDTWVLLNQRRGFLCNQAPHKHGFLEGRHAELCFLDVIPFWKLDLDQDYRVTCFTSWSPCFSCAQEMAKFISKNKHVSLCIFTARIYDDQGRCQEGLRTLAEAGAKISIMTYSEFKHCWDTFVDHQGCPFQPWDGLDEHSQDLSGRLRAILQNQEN

For `O=C(c1cccc(F)c1)N1CCC2(CC1)CN(c1ccccc1)C2`, on Cytochrome P450 3A4, the AC50 result is on record as “inconclusive”.

For `CC(=O)c1cccc(OC(=O)c2ccc3c(=O)n4c(nc3c2)CCC4)c1`, the figures for the EC50 (at Streptokinase A; in [3]; in the data set with Streptococcus) were > 150 µM (not active), 12.6 µM (active) and 14.4 µM (active), respectively. Besides, the results for the IC50 in data set [1] and in data set [2] were 6.27 µM (active) and 5.35 µM (active), respectively.

Take `Cc1cc(C(=O)CN2C(=O)c3ccccc3C2=O)c(C)n1Cc1cccs1`: the AC50 in the data set on HEK293 was 4.41 µM (active).

On to `O=C(c1cnccn1)N1CCC2(CC1)CN(C(c1ccccc1)c1ccccc1)C2`, for which the results for the AC50 result at Cytochrome P450 3A4 and on Cytochrome P450 1A2 were “inconclusive” and 25.1 µM (inconclusive), respectively.

With `O=[N+]([O-])c1cccnc1N1CCOCC1`, the AC50 at Cytochrome P450 2C9 is 12.6 µM (inconclusive); on Cytochrome P450 3A4, “inconclusive”; at Cytochrome P450 1A2, 28.2 µM (inconclusive).

Consider `CO/N=C(\c1nonc1N)N1CCN(c2ccc(Cl)cc2[N+](=O)[O-])CC1`, for which the IC50 was > 50 µM (not active) in data set [4], 83.3 µM (inactive) in data set [5] and 119 µM (inactive) in data set [6].

For the compound `CC(C)(C)C(=O)N1CCN(c2ccc([N+](=O)[O-])c(NCC3CCCO3)c2)CC1` (configuration not stated), the AC50 on Cytochrome P450 2C19 was 25.1 µM (inconclusive); at Cytochrome P450 3A4, “inconclusive”; at Cytochrome P450 1A2, 14.1 µM (inconclusive).

Consider `C=CCn1c(NCCc2ccccc2)nc2c1c(=O)n(C)c(=O)n2C`, for which the IC50 is 2.56 µM (active) in [7] and 1.86 µM (active) in data set [11]. Further, the AC50 in data set [8] is 1.83 µM (active); in [9], 57.2 µM (active); in data set [10] it was 7.83 µM (active).

For `CCOC(=O)c1cnc2cc(Cl)c(OC)cc2c1NCC1CCCO1` (configuration not stated), the figures for the IC50 in [7] and in [11] were 2.7 µM (active) and 15 µM (inactive), respectively.

For `O=C(c1ccncc1)N1CCC2(CC1)CN(C(c1ccccc1)c1ccccc1)C2`, the AC50 entry is “inconclusive” at Cytochrome P450 3A4 and 15.8 µM (inconclusive) at Cytochrome P450 1A2.

Regarding `CCC(c1nnnn1-c1ccc2c(c1)OCCO2)N1CCN(C/C=C/c2ccccc2)CC1` (configuration not stated), the EC50 in data set [12] is 76.2 µM (inactive); on Mu-type opioid receptor, 92.6 µM (inactive).

On to `C=CCn1c(-c2ccc(OC)cc2)nc2ccccc21`, for which the IC50 in data set [7] was 4.04 µM (active); in [11] it was 4.36 µM (active). Besides, in [13], the EC50 was > 53 µM (inactive).
